B1: Interferon-gamma: proteinaceous positive regulator (protein, UniProt P01579 24-161, looked up)
Interferon gamma: QDPYVKEAENLKKYFNAGHSDVADNGTLFLGILKNWKEESDRKIMQSQIVSFYFKLFKNFKDDQSIQKSVETIKEDMNVKFFNSNKKKRDDFEKLTNYSVTDLNVQRKAIHELIQVMAELSPAAKTGKRKRSQMLFRG

How the values were obtained:
[1] = tested on: secreted G-CSF protein; assay: Two-antibody sandwich immunoassay of G-CSF secreted by 5637 bladder carcinoma cells; format: cell-based, human; conditions: 5637 cells, 48 hours, serum-containing media; TNF-alpha 5 ng/ml; #542 50 uM; #1780 1 uM and 0.2 uM; FIG. 55
Method: Supernatants from 5637 bladder carcinoma cells incubated with chemicals registering as positives in the G-CSF promoter/luciferase High-Throughput assay were assayed for secreted G-CSF protein using the two-antibody sandwich immunoassay (96). The G-CSF Assay kit manufactured by Oncogene Science, Inc. was used and the manufacturer's instructions were followed.
The levels of G-CSF in the cell supernatants were determined by a sandwich-antibody assay as described in Materials and Methods (FIG. 55).

[2] = tested on: FRE cells; format: cell-based
Method: To determine cytotoxic concentrations of chemicals registering as positives in the High-Throughput luciferase assay the MTT cytotoxicity assay was employed (95). In this assay, a tetrazolium salt [3-(4,5-dimethylthiazol-2-yl)-2,5-diphenyl-tetrazolium bromide, MTT] is reduced to a colored formazan product by reducing enzymes present only in living metabolically active cells.
Cells were seeded into 96 well microtiterplates (20 000 cells/well) and cultured overnight. Compound #542 was added at various concentrations and the cells were incubated for 6 hours. Luciferase activity was determined as described in Materials and Methods. The MTT-colorimetric assay was carried out on identically treated samples of FRE cells. Induction of luciferase reporter signal (plain line) and on inhibition of respiration (dashed line) are plotted versus the concentrations of compound (FIG. 56). The ED50 for induction of luciferase activity differed from the ED50 for inhibition of respiration by a factor of almost 10, which might indicate that compound #542 exerts a specific effect on G- and GM-CSF transcription.

[3] = tested on: GM-CSF mRNA; assay: S1 nuclease protection, GM-CSF mRNA in 5637 cells; format: cell-based, human; conditions: 18 hours, low, medium and high concentrations
Method: (§1) S1 Nuclease protection assays were carried out as described in reference 94.
(§2) To further confirm, that compounds that had been identified in a luciferase expression assay using a G-CSF specific reporter cell line would be active in inducing transcription of the endogenous G-CSF gene, cells from the parental cell line 5637 used to construct the reporter cell line were incubated with cycloheximide (25 microg/ml), DMSO (0.5%, solvent control) and low, medium and high concentrations of the compounds 542 (10, 50, 250 microM),1255 (20, 100, 500 microM), 1793(0.25, 1.2, 6.25 microM) and 1904 (20, 100 microM) for 18 hours. RNA was extracted and the concentration of G-CSF, GM-CSF and gamma-actin mRNA was determined by the S1 protection method as described in Materials and Methods. The positions of G-CSF GM-CSF and gamma-actin specific protected fragments are indicated (G, GM, A) at the left side of the gel (FIG. 54).

[4] = tested on: G-CSF mRNA; assay: S1 nuclease protection, G-CSF mRNA in 5637 cells; format: cell-based, human; conditions: 18 hours, 542 (10, 50, 250 microM), 1255 (20, 100, 500 microM), 1793 (0.25, 1.2, 6.25 microM), 1904 (20, 100 microM)
Method: as §1, §2

[5] = tested on: endogenous G-CSF mRNA; assay: Northern blot of endogenous G-CSF mRNA in 5637 cells; format: cell-based, human; conditions: compared to solvent DMSO, normalized with beta-actin probe
Method: Total cellular RNA was isolated from the G21 cell clone or from untransfected 5637 cells following incubation for 6 hours with various transcriptionally modulating chemicals identified in the high-throughput screen. Cells were grown in serum free medium as described above. Total cellular RNA was isolated using the RNAZol method (CINNA/BIOTECX, Friendswood, Tex., Laboratories International, Inc.). Cells were resuspended and lysed with RNAZol solution (1.5 ml/9 cm petri dish) and the RNA was solubilized by passing the lysate a few times through a pipette. Chloroform was added to the homogenate (0.1 ml/1 ml), and samples were shaken for 15 seconds followed by a 5 minutes incubatoin on ice. After centrifuging for 10 minutes, the upper phase was collected and an equal volume of isopropanol was added. Samples were incubated for 45 minutes at −20 C, and the RNA was pelleted for 15 minutes at 12,000×g at 4 C. The RNA pellet was then washed with 70% ethanol and dried briefly under vacuum.
Total cellular RNA was isolated from 5637 cells following incubation with chemicals as described above and electrophoresed in a 1% Agarose-[…] Formaldehyde gel. The RNA was transferred to Duralon-UV nylon filters (Stratagene, La Jolla, Calif.) using the manufacturer's recommended protocol. The filters were prehybridized for 4 hours (prehybridizing solution=5X SSC, 50 mM sodium pyrophosphate, 10X Denhardt's solution, 10% dextran sulfate, 7% and 250 µg/ml denatured ssDNA) and then hybridized in the same solution for 16 hours at 65 C in the presence of G-CSF or Beta-Actin (Oncor, Gaithersburg, Md.) specific probes. The G-CSF probe was a 0.6 kb AflII o Xhol fragment which contained most of exon 5 of the human G-CSF gene. The B-actin probe was used as a control probe to normalize for the total amount of RNA. […] Bands were excised and counted in a liquid scintillation counter (LKB, Gaithersburg, Md.), and counts obtained with the G-CSF specific probe were normalized relative to the counts obtained with the B-Actin specific probe. […]

Molecule	amount of GM-CSF mRNA (S1 protection) [3]	amount of G-CSF mRNA (S1 protection) [4]	endogenous G-CSF mRNA production (Northern blot) [5]	other results
CN(C)c1ccc(C(=C2C=CC(=[N+](C)C)C=C2)c2ccc(N(C)C)cc2)cc1 [Chemical 1780, Crystal Violet]	–	–	–	G-CSF secretion into media [1]: increased G-CSF secretion
Nc1nc(=O)n([C@H]2C[C@H](O)[C@@H](CO)O2)cc1Br [Chemical 542, 5-Bromo-2′-deoxycytidine]	increased the amount of GM-CSF mRNA	increased mRNA production	–	factor between ED50 for induction of luciferase activity (G21) and ED50 for inhibition of respiration (FRE cells) [2]: ~10; G-CSF secretion into media [1]: increased G-CSF secretion
CN(C)c1ccc(C(=C2C=CC(=[N+](C)C)C=C2)c2ccc([N+](C)(C)C)cc2)cc1.[Cl-].[Cl-] [Chemical 670, Methyl Green]	–	–	stimulated production of G-CSF mRNA	–
CN(C)C(=S)SCC#N [Chemical 1793, Cyanomethyl-N,N-dimethyl dithiocarbomate]	increased the amount of GM-CSF mRNA	increased mRNA production	–	–
Clc1cc(Cl)cc(Br)c1 [Chemical 1255, 1-Bromo-3,5-dichlorobenzene]	–	increased mRNA production	stimulated production of G-CSF mRNA	–
O=c1[nH]c(=O)n([C@H]2C[C@H](O)[C@@H](CO)O2)cc1Br [Chemical 543, 5-Bromo-2′-deoxyuridine]	showed similar activity	–	–	–
Cl.Nc1c2ccccc2nc2ccccc12 [Chemical 1904, 9-Aminoacridine hydrochloride]	–	increased mRNA production	–	–
B1	–	–	increased G-CSF mRNA production	–
